Source: patent US4283328A, “Preparation of dehydropeptides” (Research Corporation, priority 1979, dated 1981)
Values belong to the compound of their own block, whether it stands above or below them. *1 amine or outer side, *2 acyl side, *3 side chain or, on linkers, in order; H or OH if unused. Where a SMILES comes first, the peptide text is derived from it. [ ]: non-standard residue; d: D form. The star is where a group is joined. X1 = O=C(C(=Cc1ccccc1)N[*:1])[*:2]; Cbz = O=C(OCc1ccccc1)*

Key:
α-chymotrypsin = assay: Enzymolysis with chymotrypsin (stability to enzymatic hydrolysis); assay type: in vitro ADME
Procedure: (§1) One purpose in introducing unsaturation into a peptide chain is to increase the binding of the peptides to active sites and protect the peptide from enzymatic cleavage, e.g. hydrolysis, in the bloodstream, thus enhancing activity. One method of measuring the stability of peptides to enzymatic hydrolysis is to treat the peptides with chymotrypsin which is specific for phenyl bonds.
(§2) A solution of 46 mg of N-Carbobenzoxy-L-prolyl-dehydrophenylalanyl-L-phenylalanine in 4 ml of methanol/water (1:1) was diluted to 10 ml with a 0.05 N tris buffer solution (pH 8) containing 0.46 mg of α-chymotrypsin. After standing 2 hours at 37° in a constant temperature bath, a 0.5 ml sample was treated with 0.5 ml of a 1.25% acetone solution of ninhydrin.

[1] = test system: angiotensin I converting enzyme; assay: Inhibition of angiotensin I converting enzyme; assay type: biochemical
[2] = Enzymolysis with chymotrypsin (stability to enzymatic hydrolysis); assay type: in vitro ADME; conditions: chymotrypsin; 2 hours at 37°, tris buffer pH 8; ninhydrin color; read-out: hydrolysis by α-chymotrypsin
Procedure: as §1, §2

guinea pig ileum = assay: Guinea pig ileum contraction assay
Description: This analog can also be made by solid phase protein synthesis.

blood pressure = assay: Guinea pig blood pressure test; assay type: in vivo; conditions: relative to BDK = 100%
renin = assay: Renin inhibition; assay type: biochemical

Compound: O=C(O)[C@H](Cc1ccccc1)NC(=O)[C@H](Cc1ccccc1)NC(=O)[C@@H]1CCCN1C(=O)OCc1ccccc1 [ZPro-Phe-Phe.OH, reference compound] (Cbz-Pro-Phe-Phe-OH)
metabolised at 2 h [2]: 5%

Compound: N=C(N)NCCC[C@H](NC(=O)[C@H](Cc1ccccc1)NC(=O)[C@@H]1CCCN1C(=O)[C@H](CO)NC(=O)C(=Cc1ccccc1)NC(=O)CNC(=O)[C@@H]1CCCN1C(=O)[C@@H]1CCCN1C(=O)[C@@H](N)CCCNC(=N)N)C(=O)O [dehydro BDK, Arginyl-prolyl-prolyl-glycyl-dehydrophenylalanylseryl-prolyl-phenylalanyl-arginine] (H-RPPG[X1]SPFR-OH)
increase in contraction, BDK as the standard at 100% (guinea pig ileum; guinea pig ileum, relative to BDK = 100%): 247.6% | reduction of blood pressure, BDK as the standard at 100% (blood pressure; given intra-arterially): 277.7% | decrease of blood pressure, BDK as the standard at 100% (blood pressure; given intravenously): 6250%

Compound: COC(=O)[C@H](Cc1ccccc1)NC(=O)[C@@H](NC(=O)C(=Cc1ccccc1)NC(=O)[C@@H](N)CC(C)C)C(C)C [leudehydrophe-val-phe.OMe, Leucyl-dehydrophenylalanyl-valyl-phenylalanine methyl ester]
inhibition of renin (renin): inhibits renin

Compound: Tyr-DAla-Gly-ΔPhe-Met-NH2 Acetate
activity in the guinea pig ileum contraction assay (guinea pig ileum): active

Now from value to compound:

ninhydrin color formed after α-chymotrypsin treatment (α-chymotrypsin; 2 hours at 37°, tris buffer pH 8, methanol/water, compared with blank solution): matched that of a blank solution | stability to chymotrypsin (α-chymotrypsin; treatment with chymotrypsin): stable to chymotrypsin
Compound: O=C(N[C@@H](Cc1ccccc1)C(=O)O)C(=Cc1ccccc1)NC(=O)[C@@H]1CCCN1C(=O)OCc1ccccc1 [N-Carbobenzoxy-L-prolyl-dehydrophenylalanyl-L-phenylalanine]

inhibition of angiotensin I converting enzyme [1]: inhibit angiotensin I converting enzyme
Compound: CC(C)C[C@H](NC(=O)[C@H](Cc1c[nH]cn1)NC(=O)C(=Cc1ccccc1)NC(=O)[C@@H]1CCCN1C(=O)OCc1ccccc1)C(=O)O [Z-Pro-ΔPhe-His-Leu.OH]

inhibition of angiotensin I converting enzyme [1]: inactive
Compound: CC(C)C[C@H](NC(=O)[C@H](Cc1c[nH]cn1)NC(=O)C(=Cc1ccccc1)NC(=O)[C@@H]1CCCN1)C(=O)O [tetrapeptide freed of the blocking group, H.Pro-ΔPhe-His-Leu.OH.2HBr]
